From patent publication US9949960B2, “Pharmaceutical composition for preventing or treating muscle weakness-related diseases, containing butylpyridinium or derivative thereof” (KOREA RESEARCH INSTITUTE OF BIOSCIENCE AND BIOTECHNOLOGY, priority 2014, dated 2018)

Assays:
[1] = system: C57BL/6 male mice, muscle immobilization model; assay: Rota-rod test after tibialis anterior muscle immobilization; assay type: in vivo, mouse; settings: compared to control group
Description: (§1) As experimental animals, 20 of C57BL/6 male mice aged 6 weeks were used. The experimental animals were assigned to two groups: a control group, to which 10 mice having similar weights were assigned without administration, and an experimental group, to which 10 mice having similar weights were assigned with butylpyridinium chloride administration.
(§2) It was also administered continuously during the muscle immobilization periods described below.
(§3) In this experiment, as a method for inducing muscle regeneration in mice, the tibialis anterior muscle immobilization protocol was used. In this method, the thighs and shins of one leg of a mouse were fixed using a medical staple so that legs were immobilized, and after leaving the immobilized mouse alone for 3 days, the fixed leg was released. The principle used in this method is that when a leg is placed in a cast and the muscle of the leg is immobilized (i.e., not frequently used), the muscle is lost. It is a method for inducing muscle regeneration, in which, after the muscle loss due to immobilizing the shin muscle, the muscle is regenerated by releasing the immobilized muscle so that the muscle may move again. […]

[2] = system: C57BL/6 male mice, muscle immobilization model; assay: Treadmill test after tibialis anterior muscle immobilization; assay type: in vivo, mouse; settings: compared to control group
Description: as §1, §2, §3

[3] = system: C2C12 myoblast cell line; assay: Myotube formation of C2C12 cells observed under phase contrast microscopy; assay type: cell-based, mouse; settings: 0.2 μM, 3 days differentiation, compared to DMSO control; FIG. 1
Description: C2C12 is a cell line of myoblasts obtained from a C3H strain live mouse, and it is widely used in the differentiation studies of myoblasts.
The above-described C2C12 cells were cultured in each of general media for cell growth and media for differentiation. In the normal cell growth media (GM), DMEM supplemented with 10% fetal bovine serum was used, and in the differentiation media (DM), DMEM containing 2% horse blood serum was used.
(§4) The DMSO, cetylpyridinium chloride, butylpyridinium chloride, and dodecylpyridinium chloride used in the experiment were all purchased from Sigma-Aldrich.

[4] = system: C2C12 myoblast cell line; assay: Western blot of MYH3 protein in differentiating C2C12 cells; assay type: cell-based, mouse; settings: 0.2 μM every day, third day of differentiation, vs DMSO control; FIG. 3
Description: The cells were harvested on the third day of differentiation and centrifuged at 1200 rpm for 3 minutes. After adding 100 μL of a lysis buffer to the cells, the cells were sonicated and centrifuged at 3000 rpm for 10 minutes to obtain a water-soluble protein, and after adding a 4× sample buffer, the cells were reacted in boiling water for 5 minutes.
10 μg of the protein was loaded on a 12% SDS-PAGE gel and developed, and then was transferred onto a nitrocellulose membrane. The nitrocellulose membrane was blocked in 5% skim milk for 1 hour at room temperature and washed 5 times with TTBS (0.03% Tween 20, Tris 2.42 g, NaCl 9 g, pH 7.4, and 1 L) for 5 minutes each. The primary antibody was diluted in TTBS containing 5% skim milk at a ratio of 1:500 and was added to the nitrocellulose membrane, and after reacting at room temperature for 2 hours, the nitrocellulose membrane was again washed 5 times with TTBS for 5 minutes each. The secondary antibody was diluted at a ratio of 1:5000 again in TTBS containing 5% skim milk and added, was reacted at room temperature for 2 hours, was washed with TTBS 5 times for 5 minutes each, and ECL (Enhanced Chemiluminescent solution, Pierce) was added. Thereafter, the membrane was exposed to X-ray film, and the amount of the protein was measured.

[5] = system: C2C12 myoblast cell line; assay: Immunocytochemistry of MYH3 expression in differentiating C2C12 cells; assay type: cell-based, mouse; settings: 0.2 μM, third day of differentiation; FIG. 2
Description: as §4
C2C12 cells on a cover glass coated with 0.1% gelatin were differentiated for 3 days. After washing the cells with 1×PBS, fixing with 3.7% paraformaldehyde at room temperature for 15 minutes, and washing 3 times with 1×PBS, a permeabilization buffer was added, and the cells were reacted at room temperature for 15 minutes. After washing the cells three times with 1×PBS again, the cells were reacted for 30 minutes with PBST (blocking buffer, PBS containing 0.5% Tween 20) containing 1% BSA to deter any unspecific binding of antibodies. The primary antibody against MYH3 (SC-20641, Santa Cruz Biotechnology) was added to the blocking buffer by diluting at a ratio of 1:500 and was reacted at room temperature for 1 hour. After washing the cells three times with 1×PBS, the secondary antibody (Goat anti-Rabbit IgG-HRP), which was diluted in the blocking buffer at a ratio of 1:5000, was added and reacted at room temperature for 1 hour, and the cells were washed three times with 1×PBS. The cover glass was placed on a slide glass, photographs were taken with a fluorescence microscope, and the results were analyzed.

[6] = system: C57BL/6 male mice, muscle immobilization model; assay: Grip strength test after tibialis anterior muscle immobilization; assay type: in vivo, mouse; settings: compared to control group
Description: as §1, §2
as §3, with “lost.” for “lost. It is a method for inducing muscle regeneration, in which, after the muscle loss due to immobilizing the shin muscle, the muscle is regenerated by releasing the immobilized muscle so that the muscle may move again.”
Grip strength was measured using a grip strength measuring instrument made by the company BIOSEB. The mouse was placed on a wire mesh attached to the instrument panel that can monitor the strength of a force, and the force of holding the wire mesh by the mouse while the tail was gripped downward was measured. […]

[7] = system: mouse immobilization model; assay: Skeletal muscle mass (muscle weight divided by body weight) in mouse immobilization model; assay type: in vivo; settings: oral, concentration-dependent, 7 days after inducing regeneration; FIG. 11
Text: Afterwards, an increase in the skeletal muscle mass due to the drug was confirmed by dividing the weight of the separated muscle by the body weight of the mouse (FIG. 11).

[8] = system: mouse immobilization model; assay: Motor ability by rota-rod and treadmill tests after concentration-dependent oral administration; settings: FIG. 10
Description: The exercise was applied using a rota-rod device consisting of 6 partitions (with a diameter of 7 cm, at an interval of 15 cm) and a rotatable cylindrical bar (with a height of 60 cm).
For the treadmill used in this test, a self-manufactured device was used. After each mouse was placed in an isolated lane and made to run, the time from the starting point to a point when the mouse was exhausted (i.e., judged to have no will to run) was recorded. […] In this experiment, repeated experiments on the same mouse could not be performed. The mouse was placed on the device and was made to run at a speed of 8 rpm, the speed was accelerated by 2 rpm every 10 minutes up to a speed of 18 rpm, and starting with no inclination, the inclination was increased by 5 degrees every 30 minutes.

[9] = system: mouse immobilization model; assay: Muscle fiber cross-sectional area (Laminin staining of TA muscle) in mouse immobilization model; settings: 1.7 mg/kg (mouse) oral, compared to control group; FIG. 12
Description: The separated muscle was cut to a thickness of 5 μM and stained by immunofluorescence using a Laminin antibody. […] By using the Laminin antibody, sections of the skeletal muscle fibers formed in the basement membrane were stained, and the cross-sectional area of the muscle fibers was measured (FIG. 12).

Structure (SMILES) | formation of myotubes (differentiation promoting effect) [3] | amount of MYH3 protein (Western blot) [4] | expression of MYH3 (immunocytochemistry) [5] | also measured
CCCC[n+]1ccccc1 [butylpyridinium chloride] | more myotubes were formed | significantly increased | very high | motor ability to maintain the sense of balance (rota-rod) ([1]; 15 mg/kg oral, after muscle immobilization, FIG. 5): improved; endurance (treadmill) ([2]; 15 mg/kg oral, after muscle immobilization, FIG. 6): improved; range of decrease in grip strength after muscle immobilization ([6]; 15 mg/kg oral, 3 days immobilization, tested 7 days after release, FIG. 4): reduced
CCCCCCCCCCCCCCCC[n+]1ccccc1 [cetylpyridinium bromide] | – | increased | – | –
CCCCCCCCCCCCCCCC[n+]1ccccc1 [cetylpyridinium chloride] | more myotubes were formed | significantly increased | very high | motor ability to maintain the sense of balance (rota-rod) ([1]; 50 mg/kg oral for 2 weeks, FIG. 8): improved; endurance (treadmill) ([2]; 50 mg/kg oral for 2 weeks, FIG. 9): improved; skeletal muscle mass of the EDL muscle [7]: increased; skeletal muscle mass of the gastrocnemius muscle [7]: increased; range of decrease in grip strength after muscle immobilization ([6]; 50 mg/kg oral for 2 weeks, FIG. 7): reduced; motor ability (rota-rod and treadmill tests) [8]: improved; cross-sectional area of the muscle (TA) [9]: increased
CCCCCCCCCCCC[n+]1ccccc1 [dodecylpyridinium chloride] | more myotubes were formed | significantly increased | very high | –
CC[n+]1ccccc1.[Cl-] [ethylpyridinium chloride] | – | did not increase | – | –
